According to patent EP3575310A1, “PHOSPHONATE DERIVATES OF BETULIN COMPOUNDS WITH ANTIVIRAL ACTIVITY, METHOD FOR THEIR PREPARATION AND THEIR APPLICATION” (Uniwersystet Slaski w Katowicach, priority 2018, dated 2019):
Like-named read-outs stand apart in the source and are kept apart here. Values belong to the molecule of their own block, whether it stands above or below them.

Key:
[1] = system: HIV-1 infected H9 lymphocytes; details: cited from earlier work
HIV-1 [2] = details: cited from earlier work
HIV = details: cited from earlier work
[3] = Cytotoxicity in lymphoid CEMT4 cell cultures, MTT method; format: cell-based; details: human, CEMT4 cells, viability relative to control cultures
Method: Biological testing of compounds is based on the determination of their cytotoxicity, including determination of CC50 and CC90 (Cytotoxity Concentration) and the assessment of the ability to inhibit viral replication in cell cultures and the determination of IC50 and IC90 (Inhibitory Concentration). Cytotoxicity of compounds is assessed in cultures of established lymphoid CEMT4 cell lines using the MTT method. […] The cultures are run in triplicate for every concentration of the tested compounds. HIV replication inhibition by the studied compounds is assessed in cultures of established lymphoid CEMT4 cell lines. Cells are incubated for 24 hours in a medium (RPMI 10% FBS) supplemented with known concentrations of the tested preparations. The cells are then infected with a laboratory isolate of HIV-1 (wild type, S1). The cultures are prepared in triplicate for every concentration of the tested compound. Cultures containing identical number of infected cells grown in a medium not containing the tested substances are used as a positive control (100% viral replication). HIV inhibiting ability is determined after 7 days of growing the culture by determining the viral p24 protein in the medium above the cells. The amount of the protein corresponds to the number of newly synthesized viruses. Inhibition of replication is measured by reducing the amount of p24 protein in cultures enriched in test compounds with respect to the amount of p24 in a culture carried out in a standard medium. The amount of p24 viral protein is determined using an anti-p24 immunoenzymatic test. The results are presented in the form of CC50, IC50 and TI (Therapeutic Index) values. Table 1. Results of determination of anti-HIV activity of synthesized compounds and of the reference compound, AZT

HIV-1 (wild type, S1) = assay: microbe, parasite or virus in culture; format: cell-based
Method: Biological testing of compounds is based on the determination of their cytotoxicity, including determination of CC50 and CC90 (Cytotoxity Concentration) and the assessment of the ability to inhibit viral replication in cell cultures and the determination of IC50 and IC90 (Inhibitory Concentration). Cytotoxicity of compounds is assessed in cultures of established lymphoid CEMT4 cell lines using the MTT method. […] The cultures are run in triplicate for every concentration of the tested compounds. HIV replication inhibition by the studied compounds is assessed in cultures of established lymphoid CEMT4 cell lines. Cells are incubated for 24 hours in a medium (RPMI 10% FBS) supplemented with known concentrations of the tested preparations. The cells are then infected with a laboratory isolate of HIV-1 (wild type, S1). The cultures are prepared in triplicate for every concentration of the tested compound. […] HIV inhibiting ability is determined after 7 days of growing the culture by determining the viral p24 protein in the medium above the cells. […] Inhibition of replication is measured by reducing the amount of p24 protein in cultures enriched in test compounds with respect to the amount of p24 in a culture carried out in a standard medium. The amount of p24 viral protein is determined using an anti-p24 immunoenzymatic test. […]

HIV-1 [4] = details: inhibiting the HIV-1 replication; cited from earlier work

Molecule: 3-O-(3,3'-dimethylsuccinyl)betulinic acid [Item 3]
EC50 [1]: 3.5 nM

Molecule: C=C(C)[C@@H]1CC[C@]2(CO)CC[C@]3(C)[C@H](CC[C@@H]4[C@@]5(C)CC[C@H](O)C(C)(C)[C@@H]5CC[C@]43C)[C@@H]12 [Item 1, lup-20(29)-ene-3β,28-diol]
activity against HIV-1 (HIV-1 [2]): weak activity

Molecule: C=C(C)[C@@H]1CC[C@]2(COC(=O)C(C)(C)CC(=O)O)CC[C@]3(C)[C@H](CC[C@@H]4[C@@]5(C)CC[C@H](OC(=O)CC(C)(C)C(=O)O)C(C)(C)[C@@H]5CC[C@]43C)[C@@H]12 [3-O-(3',3'-dimethylsuccinyl)-28-O-(2",2"-dimethylsuccinyl)betulin]
EC50 (HIV): 0.87 nM

Molecule: C=C(C)[C@@H]1CC[C@]2(C(=O)O)CC[C@]3(C)[C@H](CC[C@@H]4[C@@]5(C)CC[C@H](O)C(C)(C)[C@@H]5CC[C@]43C)[C@@H]12 [Item 2]
CC50 [3]: 5 µM

Molecule: C=C(C)[C@@H]1CC[C@]2(CO)CC[C@]3(C)[C@H](CC[C@@H]4[C@@]5(C)CC[C@H](O)C(C)(C)[C@@H]5CC[C@]43C)[C@@H]12 [Item 1]
IC50 (HIV-1 (wild type, S1)): NO

Molecule: CCOP(=O)(C=C(C)[C@@H]1CC[C@]2(C(=O)O)CC[C@]3(C)[C@H](CC[C@@H]4[C@@]5(C)CC[C@H](OC(=O)CC(C)(C)C(=O)O)C(C)(C)[C@@H]5CC[C@]43C)[C@@H]12)OCC [Item 9]
CC50 [3]: > 69 µM

Molecule: C=C(C)[C@@H]1CC[C@]2(C(=O)O)CC[C@]3(C)[C@H](CC[C@@H]4[C@@]5(C)CCC(=O)C(C)(C)[C@@H]5CC[C@]43C)[C@@H]12 [betulonic acid]
activity against HIV-1 (HIV-1 [2]): weak activity

Molecule: C=C(C)[C@@H]1CC[C@]2(COC(=O)CC(C)(C)CC(=O)O)CC[C@]3(C)[C@H](CC[C@@H]4[C@@]5(C)CC[C@H](OC(=O)CC(C)(C)CC(=O)O)C(C)(C)[C@@H]5CC[C@]43C)[C@@H]12 [3,28-di-O-(3',3'-dimethylglutaryl)betulin]
EC50 (HIV): 0.66 nM

Molecule: CCOP(=O)(C=C(C)[C@@H]1CC[C@]2(C(=O)O)CC[C@]3(C)[C@H](CC[C@@H]4[C@@]5(C)CC[C@H](OC(=O)CC(C)(C)CC(=O)O)C(C)(C)[C@@H]5CC[C@]43C)[C@@H]12)OCC [Item 11]
CC50 [3]: > 68 µM

Molecule: C=C(CP(=O)(OCC)OCC)[C@@H]1CC[C@]2(C(=O)O)CC[C@]3(C)[C@H](CC[C@@H]4[C@@]5(C)CC[C@H](OC(=O)CCC(C)(C)C(=O)O)C(C)(C)[C@@H]5CC[C@]43C)[C@@H]12 [Item 6]
CC50 [3]: > 68 µM

Molecule: C=C(CP(=O)(OCC)OCC)[C@@H]1CC[C@]2(C(=O)O)CC[C@]3(C)[C@H](CC[C@@H]4[C@@]5(C)CC[C@H](OC(=O)CC(C)(C)CC(=O)O)C(C)(C)[C@@H]5CC[C@]43C)[C@@H]12 [Item 7]
CC50 [3]: > 68 µM

Molecule: C=C(C)[C@@H]1CC[C@]2(C(=O)O)CC[C@]3(C)[C@H](CC[C@@H]4[C@@]5(C)CC[C@H](O)C(C)(C)[C@@H]5CC[C@]43C)[C@@H]12 [Item 2, (3β)-3-hydroxy-lup-20(29)-en-28-oic acid]
EC50 (HIV-1 [4]): 1600 nM
activity against HIV-1 (HIV-1 [2]): weak activity

Molecule: CC(C)[C@@H]1CC[C@]2(C(=O)O)CC[C@]3(C)C(CCC4[C@@]5(C)CC[C@H](O)C(C)(C)C5CC[C@]43C)C12 (stereo partly drawn) [dihydrobetulinic acid]
EC50 (HIV-1 [4]): 900 nM

Molecule: Cc1cn([C@H]2C[C@H](N=[N+]=[N-])[C@@H](CO)O2)c(=O)[nH]c1=O [Item 12]
CC50 [3]: > 280 µM

Molecule: CCOP(=O)(C=C(C)[C@@H]1CC[C@]2(C(=O)O)CC[C@]3(C)[C@H](CC[C@@H]4[C@@]5(C)CC[C@H](OC(=O)CCC(C)(C)C(=O)O)C(C)(C)[C@@H]5CC[C@]43C)[C@@H]12)OCC [Item 10]
CC50 [3]: > 68 µM

Molecule: C=C(CP(=O)(OCC)OCC)[C@@H]1CC[C@]2(C(=O)O)CC[C@]3(C)[C@H](CC[C@@H]4[C@@]5(C)CC[C@H](OC(=O)CC(C)(C)C(=O)O)C(C)(C)[C@@H]5CC[C@]43C)[C@@H]12 [Item 5]
CC50 [3]: > 69 µM

IC50 (HIV-1 (wild type, S1); Human immunodeficiency virus 1, CEM-T4): 30 nM
Molecule: C=C(C)[C@@H]1CC[C@]2(C(=O)O)CC[C@]3(C)[C@H](CC[C@@H]4[C@@]5(C)CC[C@H](OC(=O)CC(C)(C)C(=O)O)C(C)(C)[C@@H]5CC[C@]43C)[C@@H]12 [Item 3]
